Measured values published in the NIST ThermoML archive (doi:10.1016/j.jct.2014.02.019).

What was measured:
[1] = 101 kPa, Liquid; for viscosity: Capillary tube (Ostwald / Ubbelohde) method; for mass density: Vibrating tube method
[2] = wn = mass fraction of the nth substance listed; settings: 101 kPa, Liquid; for viscosity: Capillary tube (Ostwald / Ubbelohde) method; for mass density: Vibrating tube method

CC#N [acetonitrile]
[1]
Settings | mass density [kg/m3] | viscosity [mPa·s]
298.15 K | 776.47 | 0.342
303.15 K | 771.56 | 0.3269
308.15 K | 765.26 | 0.3092
313.15 K | 759.55 | 0.2929

CC#N [acetonitrile] + CN(C)C=O
[2]
Settings | mass density, 298.15 K [kg/m3] | mass density, 303.15 K [kg/m3] | mass density, 308.15 K [kg/m3] | mass density, 313.15 K [kg/m3] | viscosity, 298.15 K [mPa·s] | viscosity, 303.15 K [mPa·s] | viscosity, 308.15 K [mPa·s] | viscosity, 313.15 K [mPa·s]
w2 = 0 | 776.47 | 771.56 | 765.26 | 759.55 | 0.342 | 0.3269 | 0.3092 | 0.2929
w2 = 0.25 | 816.75 | 811.82 | 806.58 | 801.83 | 0.3959 | 0.3598 | 0.3417 | 0.3262
w2 = 0.5 | 856.92 | 852.67 | 847.38 | 842.57 | 0.5214 | 0.46 | 0.434 | 0.4038
w2 = 0.75 | 900.14 | 895.46 | 890.88 | 886.23 | 0.6465 | 0.6145 | 0.5816 | 0.5524

CN(C)C=O [dimethylformamide] + CC#N
[2], w1 = 1
Settings | mass density [kg/m3] | viscosity [mPa·s]
298.15 K | 944.65 | 0.7986
303.15 K | 940.05 | 0.755
308.15 K | 935.71 | 0.7069
313.15 K | 929.91 | 0.6716

CN(C)C=O [dimethylformamide]
[1]
Settings | mass density [kg/m3] | viscosity [mPa·s]
298.15 K | 944.65 | 0.7986
303.15 K | 940.05 | 0.755
308.15 K | 935.71 | 0.7069
313.15 K | 929.91 | 0.6716
